{"source": "paper PMC12703733", "about": "“Probing Guanidino Pendant or Bridged Groups in Cyclic Antimicrobial Peptides Derived from Temporin L: A Strategy to Improve Efficacy against Gram-Negative Bacteria” (Journal of Medicinal Chemistry, 2025)", "key": {"[1]": {"tested_on": "S. aureus ATCC 25923 biofilm", "assay": "Activity against preformed biofilm (MTT)", "type": "cell-based", "conditions": "concentrations below 25 μM", "description": "The antibiofilm activity was evaluated as elsewhere reported. Bacteria grew at 37 °C until they reached an optical density (OD) of 0.8 (λ = 590 nm). The culture was diluted to a cell density of 1 × 10^6 colony-forming units (CFUs)/mL and aliquots of 100 μL of this suspension were dispensed into the wells of a 96-multiwell plate. After biofilm formation (incubation time = 20 h at 37 °C), all the planktonic cells were removed, and the wells were washed twice with PBS (150 μL). After washing, the wells were filled with PBS supplemented with different 2-fold serial dilutions of the tested peptides (from 50 to 1.56 μM). After peptide treatment (incubation time = 2 h at 37 °C) the wells were washed with PBS twice and filled with 150 μL of MTT (0.5 mg/mL) to evaluate biofilm viability after 4 h incubation at 37 °C. The reaction was then stopped by adding SDS (final concentration equal to 5% v/v). A microplate reader (Infinite M200; Tecan, Salzburg, Austria) was used to measure the absorbance of each well at 570 nm and the percentage of biofilm viability was calculated relative to the untreated samples."}, "[2]": {"tested_on": "P. aeruginosa PAO1", "assay": "microbe, parasite or virus in culture", "type": "cell-based", "conditions": "PAO1", "summary_of_the_method": "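Each MIC reflects three identical readings of four independent runs. Plates held at 37 °C after mid-log bacteria in MH medium were adjusted to 2 × 10^6 cell/mL.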"}, "[3]": {"assay": "Circular dichroism in water (BeStSel)", "type": "physicochemical", "conditions": "predicted from CD spectra in H2O using BeStSel", "description": "The secondary structure of each peptide was studied in solution and in small unilamellar vesicles (SUVs) mimicking Gram-positive and Gram-negative membranes performing CD analysis. The CD spectrum for each peptide in solution was recorded at 150 μM, using the quartz cells of 0.1 cm path length with a Jasco J-1500 CD Spectrometer at 25 °C. SUVs at the concentration of 150 μM (P/L = 1) and […] (P/L = 0.4) were prepared as reported: the lipid film was hydrated with water for 1h and then sonicated for 30 min. CD spectra were recorded at the peptide/lipid ratio of 1:1 both in the presence with SUVs mimicking Gram-positive and Gram-negative membranes. CD spectra were recorded at 25 °C on a in a 0.1 cm quartz cell using three consecutive scans from 260 to 190 nm, 3 nm bandwidth, a time constant of 16 s, and a scan rate of 10 nm/min."}, "[4]": {"tested_on": "BEAS-2B cells", "type": "cell-based", "description": "(§1) For the evaluation of peptides’ cytotoxicity, the human immortalized keratinocytes (HaCaT cells), purchased from AddexBio (San Diego, CA, USA), and BEAS-2B were used. HaCaT cells were cultured in Dulbecco’s modified Eagle’s medium supplemented with 4 mM glutamine (DMEM), 10% heat-inactivated fetal bovine serum (FBS), and 0.1 mg/mL of penicillin and streptomycin, at 37 °C and 5% CO2. BEAS-2B cells were cultured in RPMI, supplemented with 2 mM glutamine (DMEM), 10% heat-inactivated fetal bovine serum (FBS), 1 mM sodium pyruvate, and 0.1 mg/mL of penicillin and streptomycin, at 37 °C and 5% CO2. Cytotoxicity was tested in vitro using a colorimetric assay that relies on the intracellular reduction of the yellow 3-(4,5-dimethylthiazol-2-yl)-2,5-diphenyltetrazolium bromide salt (MTT) by mitochondrial dehydrogenases of metabolically active cells in formazan crystals (purple). About 4 × 10^4 HaCaT and BEAS-2B cells, suspended in DMEM supplemented with 2% FBS, were plated in triplicate wells of a 96-well microtiter plate. The plate was incubated overnight at 37 °C and 5% CO2. Then, the cells were treated with different concentrations of the peptide (from 100 to 3.12 μM) in a fresh serum-free medium for 2 h and for a longer time (24 h). Following peptide treatment, the medium was removed, and MTT (0.5 mg/mL) solution in Hank’s buffer (136 mM NaCl, 4.2 mM Na2HPO4, 4.4 mM KH2PO4, 5.4 mM KCl, 4.1 mM NaHCO3, pH 7.2, supplemented with 20 mM D-glucose) was added to each well of the plate, that was then incubated for 4 h at 37 °C and 5% CO2. The purple formazan crystals were dissolved using acidified 2-propanol and a microplate reader (Infinite M200; Tecan, Salzburg, Austria) was used to measure the absorbance of each well at 570 nm. The percentage of cell viability was calculated compared to the control, which consisted of cells without any peptide treatment (corresponding to 100% viability) and all data represent the mean of three independent experiments ± SEM."}, "[5]": {"type": "cell-based", "conditions": "Cell viability (%)", "description": "as §1"}, "[6]": {"description": "The fusogenic ability of peptides was studied performing the lipid mixing experiment and evaluating a reduction in the fluorescence energy transfer efficiency between fluorophores 12-(N-methyl-N-(7-nitrobenz-2-oxa-1,3-diazol-4-yl)) (NBD) and Rhodamine (Rho) bound to liposomes. We prepared unlabeled LUVs mimicking Gram-positive and Gram-negative membranes at a concentration of 0.16 mM, and labeled LUVs mimicking Gram-positive and Gram-negative membranes with 0.6% mol of NBD-PE and 0.6% mol of Rho-PE at the concentration of 0.04 mM. LUVs were prepared as described above, and for the experiment, unlabeled and labeled LUVs were mixed at a 1:4 ratio to have final lipid concentration of 0.1 mM. The fusogenic activity of each peptide was evaluated at lipide/peptide ratio of 0.01, 0.03, 0.05, 0.1, 0.2, 0.3, 0.5, and NBD emission at 530 nm and Rho emission at 590 nm were recorded setting an NBD excitation wavelength set at 465 nm.\nThe percentage of fusion was calculated as a function of 100% value corresponding to complete mixing of LUVs upon the addition of Triton X-100 (0.05% v/v). The percentage fusion was calculated as [F530/F590]peptide−[F530/F590]blank/[F530/F590]triton−[F530/F590]blank×100 where F 530 and F 590 are the fluorescence intensities at 530 and 590 nm calculated in the absence and in the presence of the peptide and Triton X-100."}}, "note": "Read-outs that look alike come from different tables or passages of the source. Bridge positions count the residues as written; N and C are the ends. Square brackets hold non-standard residues; d marks the D form. Peptide text beside a SMILES is read from it.", "data": [{"smiles": "CC[C@H](C)[C@H](NC(=O)[C@H](CCCNC(=N)N)NC(=O)[C@H]1CCC(=O)NCCCC[C@H](NC(=O)[C@H](Cc2ccccc2)NC(=O)[C@H](Cc2c[nH]c3ccccc23)NC(=O)[C@@H]2CCCN2C(=O)[C@@H](NC(=O)[C@@H](N)Cc2ccccc2)C(C)C)C(=O)N[C@@H](CCCCN)C(=O)N[C@@H](Cc2ccccc2)C(=O)N[C@H](CC(C)C)C(=O)N1)C(=O)N[C@@H](CC(C)C)C(N)=O", "note": "[Peptide 2, FVPWF[KKFle]RIL] (H-FVPWFKKF[dL][dE]RIL-NH2; lactam 6-10)", "values": [{"measurement": "antibiofilm activity (in words)", "setting": "[1]", "result": "weaker or no activity"}, {"measurement": "MIC", "setting": "[2]", "result": 50, "unit": "µM"}, {"measurement": "Content in water (%) random", "setting": "[3]", "result": 55, "unit": "%"}, {"measurement": "Content in water (%) α-helix", "setting": "[3]", "result": 7, "unit": "%"}, {"measurement": "Content in water (%) β-strand", "setting": "[3]", "result": 38, "unit": "%"}, {"measurement": "Cell viability (%)", "setting": "[4]; 3.12 µM", "result": 132, "unit": "%"}, {"measurement": "Cell viability (%)", "setting": "[4]; 6.25 µM", "result": 119, "unit": "%"}, {"measurement": "Cell viability (%)", "setting": "[4]; 12.5 µM", "result": 114, "unit": "%"}, {"measurement": "Cell viability (%)", "setting": "[4]; 25 µM", "result": 102, "unit": "%"}, {"measurement": "Cell viability (%)", "setting": "[4]; 100 µM", "result": 8, "unit": "%"}, {"measurement": "viability at 6.25 µM", "setting": "[5]", "result": 107, "unit": "%"}, {"measurement": "viability at 12.5 µM", "setting": "[5]", "result": 100, "unit": "%"}, {"measurement": "viability at 25 µM", "setting": "[5]", "result": 91, "unit": "%"}, {"measurement": "viability at 100 µM", "setting": "[5]", "result": 5, "unit": "%"}, {"measurement": "fusion", "setting": "[6]; LUVs DOPG:CL, P/L ratio of 0.3", "result": 100, "unit": "%"}, {"measurement": "fusion", "setting": "[6]; LUVs DOPG:DOPE:CL, P/L ratio of 0.5", "result": 75, "unit": "%"}]}]}
